From patent publication US20120270251A1, “INHIBITION OF THE ACTIVITY OF KINASE AND SYNTHETASE ENZYMES” (CSIR, priority 2009, published 2012)
Like-named read-outs stand apart in the source and are kept apart here.

Tests used:
Format in all cases: biochemical
[1] = molecular target: B. stearothermophilus phosphofructokinase (Geobacillus stearothermophilus, UniProt P00512); settings: for Hill factor (h): allosteric sigmoidal model
[2] = molecular target: Escherichia coli deadenylylated glutamine synthetase (GS0) (Escherichia coli, UniProt P0A9C5); settings: for Hill factor (h): allosteric sigmoidal model
Sequence of Escherichia coli deadenylylated glutamine synthetase (GS0) (P0A9C5 2-469): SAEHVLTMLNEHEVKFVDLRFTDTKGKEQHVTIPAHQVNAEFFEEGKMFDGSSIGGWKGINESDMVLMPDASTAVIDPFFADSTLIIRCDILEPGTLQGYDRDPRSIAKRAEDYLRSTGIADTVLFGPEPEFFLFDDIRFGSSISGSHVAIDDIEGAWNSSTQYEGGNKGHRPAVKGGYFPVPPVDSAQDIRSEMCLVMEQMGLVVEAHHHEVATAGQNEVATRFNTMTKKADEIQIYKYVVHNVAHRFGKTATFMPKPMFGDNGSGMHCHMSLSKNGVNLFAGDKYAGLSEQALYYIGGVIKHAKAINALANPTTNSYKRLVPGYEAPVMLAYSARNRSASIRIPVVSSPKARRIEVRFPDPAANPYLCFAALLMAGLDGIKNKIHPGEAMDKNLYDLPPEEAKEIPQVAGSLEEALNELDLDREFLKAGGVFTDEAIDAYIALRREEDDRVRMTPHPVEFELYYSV

[3] = molecular target: T1, Escherichia coli acetate kinase (Escherichia coli, UniProt P0A6A3); experiment: Acetate kinase steady-state kinetics, ATP vs C8D-ATP
T1 construct: purchased Sigma A7437
T1 sequence (P0A6A3 whole entry): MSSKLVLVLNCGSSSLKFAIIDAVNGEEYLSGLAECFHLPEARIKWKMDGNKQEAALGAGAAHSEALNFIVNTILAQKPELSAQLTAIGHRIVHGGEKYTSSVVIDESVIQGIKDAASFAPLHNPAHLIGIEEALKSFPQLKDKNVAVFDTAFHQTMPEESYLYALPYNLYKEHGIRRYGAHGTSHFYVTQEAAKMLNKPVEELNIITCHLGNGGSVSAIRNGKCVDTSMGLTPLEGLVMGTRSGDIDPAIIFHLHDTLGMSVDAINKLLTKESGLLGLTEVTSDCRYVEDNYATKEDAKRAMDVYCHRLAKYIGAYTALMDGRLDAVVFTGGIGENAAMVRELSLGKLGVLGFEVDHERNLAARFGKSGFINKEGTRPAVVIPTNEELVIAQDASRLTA
Excerpt: Hexokinase from Saccharomyces cerevisiae Type F-300 (Sigma, H4502) and Acetate kinase from E. coli (Sigma, A7437) were purchased. The human adenylate kinase (AK1) gene in vector pLIG-SC1 was obtained from the Structural Genomics Consortium (code AK1A). The His-tagged AK1 was produced in Escherichia coli Origami (DE3) and purified using the Bio-Rad Profinia Purification System. […] The Mycobacterium tuberculosis shikimate kinase gene in pET15b (Novagen) was obtained from the group of Chris Abell, Cambridge University, UK. The his-tagged MtSK was produced in E. coli BL21 (DE3) and purified using the Bio-Rad Profinia Purification System. The pure protein was dialysed against 50 mM Tris (pH 7.5) and 1,000 mM NaCl. Adenylylated (GS12) and deadenylylated (GS0) glutamine synthetase were prepared as outlined below.
The assay was incubated at 30° C. for 30 minutes and stopped by the addition of 1 μl of 50% TCA. The formation of ADP was analysed by HPLC.
The results are reflected in FIGS. 19 to 25. […] The best-fit to the data was obtained for the specified kinetic model using the non-linear regression algorithms as outlined using the GraphPad Prism® 5 software. […] These response curves were then used to define the KIE by the conventional estimation of KIE from KIE=vH/vD. The KIED was also determined using the following function: […]

[4] = molecular target: Escherichia coli adenylylated glutamine synthetase (GS12) (Escherichia coli, UniProt P0A9C5); settings: for Hill factor (h): allosteric sigmoidal model
Sequence of Escherichia coli adenylylated glutamine synthetase (GS12) (P0A9C5 2-469): as the sequence (P0A9C5 2-469) above

[5] = system: Saccharomyces cerevisiae hexokinase; experiment: Hexokinase steady-state kinetics, ATP vs C8D-ATP
AK1 [6] = molecular target: T2, AK1 (Homo sapiens, UniProt P00568); experiment: AK1 enzyme activity with ATP versus deuterated ATP
T2 sequence (P00568 1-194): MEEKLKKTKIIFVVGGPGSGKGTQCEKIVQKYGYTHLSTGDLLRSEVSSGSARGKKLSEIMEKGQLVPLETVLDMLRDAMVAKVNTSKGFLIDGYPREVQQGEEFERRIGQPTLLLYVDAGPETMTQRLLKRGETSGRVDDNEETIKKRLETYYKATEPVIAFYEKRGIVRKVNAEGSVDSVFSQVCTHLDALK
Method: The assay is carried out in the presence of ATP and AMP measuring the formation of ADP. […] A kinetic isotope effect is also obtained when comparing the activity of the enzyme when the reaction is carried out in the presence of AMP and deuterated AMP. A further KIE is obtained when both deuterated ATP and deuterated AMP are used in the reaction. […] The KIE is obtained by dividing the activity of the enzyme in the presence of the proteated species (vH) by the enzyme activity in the presence of the deuterated species (vD) and is vH/vD=0.5. […] The proposed basic reaction mechanisms by which all forms of kinase are regulated occurs via either the formation of an immonium species at N7, which in turn induces the formation of a carbene at C8 or via the delocalization of electrons away from the C8 rendering the C8 more acidic. An immonium species may be induced at N7 by (1) protonation via a coordinated HCO3^−, (2) carboxylation of the N7, or (3) the coordination of an amino acid side chain within the active site such as a arginine, glutamine, lysine or histidine. The different forms of regulation are then based on the mechanism by which the carbene formed at C8 is stabilized and the mechanism by which the C8-H is deprotonated or via the interaction of the protein coordinated amino acid side chains affecting the delocalization of electrons around the adenyl ring of the nucleotide.

AK1 [7] = molecular target: T2, AK1; experiment: Effect of ATPS and C8-D ATPS on synthesis of ADP by AK1; settings: 0.2-1.0 mM, 0.6 mM ATP, 0.6 mM AMP, pH 7.2
Method: Increasing concentrations of ATPS or C8-D ATPS were added; 0.2, 0.4, 0.6, 0.8, and 1.0 mM. Assays, in a final volume of 1 ml, were allowed to proceed for 45 mins at 37° C., before 6 μl 100% TCA was added to stop the reaction. […] The assay where no ATPS or C8-D ATPS was added produced 0.19 mM ADP.

[8] = tested model: Allosteric sigmoidal

Sequence of B. stearothermophilus phosphofructokinase (P00512 whole entry): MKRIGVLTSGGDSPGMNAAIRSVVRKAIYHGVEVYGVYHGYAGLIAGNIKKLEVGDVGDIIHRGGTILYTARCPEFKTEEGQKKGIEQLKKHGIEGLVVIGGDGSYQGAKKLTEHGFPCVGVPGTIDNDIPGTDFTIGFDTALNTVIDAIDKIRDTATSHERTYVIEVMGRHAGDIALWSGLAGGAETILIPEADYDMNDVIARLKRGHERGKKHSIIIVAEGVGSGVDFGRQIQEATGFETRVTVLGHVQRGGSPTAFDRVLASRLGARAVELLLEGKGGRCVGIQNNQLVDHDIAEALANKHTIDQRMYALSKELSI

Row | SMILES | Hill factor (h) [1] | Hill factor (h) [2] | fit to kinetic model [2, 8] | fit to kinetic model ([2]; tested model: Michaelis-Menton) | fit to kinetic model [3, 8] | fit to kinetic model ([3]; tested model: Michaelis-Menton) | Hill factor (h) [4] | fit to kinetic model [4, 8] | fit to kinetic model ([4]; tested model: Michaelis-Menton) | fit to kinetic model [5, 8] | fit to kinetic model ([5]; tested model: Michaelis-Menton) | inhibition of AK1 (AK1 [7]) | further results
1 | Nc1ncnc2c1ncn2[C@@H]1O[C@H](COP(=O)(O)OP(=O)(O)OP(=O)(O)O)[C@@H](O)[C@H]1O [ATP, adenosine triphosphate, reference compound] | 1.37 | 3.10 | Allosteric sigmoidal | Fit ambiguous | Allosteric sigmoidal | Fit ambiguous | 1.77 | Allosteric sigmoidal | Fit ambiguous | Allosteric sigmoidal | Fit ambiguous |  | Hill factor (h) ([3]; allosteric sigmoidal model): 2.08; Hill factor (h) ([5]; allosteric sigmoidal model): 1.75; reduction in AK1 enzyme activity using ATP compared with ATP deuterated at position C8 (AK1 [6]; low ATP concentrations): 50%
2 | Nc1ncnc2c1ncn2[C@@H]1O[C@H](COP(=O)(O)OP(=O)(O)OP(O)(O)=S)[C@@H](O)[C@H]1O [ATPS, Adenosine 5′-[γ-thio]triphosphate, reference compound] |  |  |  |  |  |  |  |  |  |  |  | inhibit | 
3 | [2H]c1nc2c(N)ncnc2n1C1OC(COP(=O)(O)OP(=O)(O)OP(O)(O)=S)C(O)C1O (stereo not shown) [C8-D ATPS] |  |  |  |  |  |  |  |  |  |  |  | inhibit | inhibition of AK1 compared with ATPS (AK1 [7]): significantly more inhibition
4 | Nc1ncnc2c1ncn2[C@@H]1O[C@H](COP(=O)(O)OP(=O)(O)OP(=O)(O)O)[C@@H](O)[C@H]1O [C8D-ATP] | 1.79 | 4.08 | Allosteric sigmoidal | Fit ambiguous | Fit ambiguous | Michaelis-Menton | 0.92 | Allosteric sigmoidal | Fit ambiguous | Fit ambiguous | Michaelis-Menton |  | KIEvmax ([1]; KIE at maximum enzyme activity): 2; KIED ([1]; asymptote at Vmax): 0.5; KIED ([1]; low ATP concentrations): > 5; fit to kinetic model [1, 8]: Allosteric sigmoidal; fit to kinetic model ([1]; tested model: Michaelis-Menton): Fit ambiguous; KIEvmax ([2]; KIE at maximum enzyme activity): 1; KIED ([2]; asymptote at Vmax): 1; KIED ([2]; low ATP concentrations): > 5; KIEvmax ([3]; KIE at maximum enzyme activity): 1; KIED ([3]; asymptote at Vmax): 1; KIED ([3]; low ATP concentrations): > 5; KIEvmax ([4]; KIE at maximum enzyme activity): 2; KIED ([4]; asymptote at Vmax): 0.5; KIED ([4]; low ATP concentrations): > 5; KIEvmax ([5]; KIE at maximum enzyme activity): 1; KIED ([5]; asymptote at Vmax): 1; KIED ([5]; low ATP concentrations): > 5; reduction in AK1 activity in the presence of deuterated ATP (AK1 [6]; high ATP concentrations): ≥ 50%
